The record followed here is patent US11084829B2, “Ubiquitin-specific-processing protease 7 (USP7) modulators and uses thereof” (RAPT THERAPEUTICS, INC., priority 2018, dated 2021).

The target of this experiment is USP7 (Homo sapiens, UniProt Q93009). In words: USP7 inhibitory potency (IC50). It counts as biochemical. The protocol: Activity for compounds described herein is provided in Table 2, wherein potency levels are provided as follows: (Potency: USP7 IC50: A<0.01 μM; B=0.01-0.1 μM; C=>0.1 μM.
USP7, sequence (Q93009 whole entry): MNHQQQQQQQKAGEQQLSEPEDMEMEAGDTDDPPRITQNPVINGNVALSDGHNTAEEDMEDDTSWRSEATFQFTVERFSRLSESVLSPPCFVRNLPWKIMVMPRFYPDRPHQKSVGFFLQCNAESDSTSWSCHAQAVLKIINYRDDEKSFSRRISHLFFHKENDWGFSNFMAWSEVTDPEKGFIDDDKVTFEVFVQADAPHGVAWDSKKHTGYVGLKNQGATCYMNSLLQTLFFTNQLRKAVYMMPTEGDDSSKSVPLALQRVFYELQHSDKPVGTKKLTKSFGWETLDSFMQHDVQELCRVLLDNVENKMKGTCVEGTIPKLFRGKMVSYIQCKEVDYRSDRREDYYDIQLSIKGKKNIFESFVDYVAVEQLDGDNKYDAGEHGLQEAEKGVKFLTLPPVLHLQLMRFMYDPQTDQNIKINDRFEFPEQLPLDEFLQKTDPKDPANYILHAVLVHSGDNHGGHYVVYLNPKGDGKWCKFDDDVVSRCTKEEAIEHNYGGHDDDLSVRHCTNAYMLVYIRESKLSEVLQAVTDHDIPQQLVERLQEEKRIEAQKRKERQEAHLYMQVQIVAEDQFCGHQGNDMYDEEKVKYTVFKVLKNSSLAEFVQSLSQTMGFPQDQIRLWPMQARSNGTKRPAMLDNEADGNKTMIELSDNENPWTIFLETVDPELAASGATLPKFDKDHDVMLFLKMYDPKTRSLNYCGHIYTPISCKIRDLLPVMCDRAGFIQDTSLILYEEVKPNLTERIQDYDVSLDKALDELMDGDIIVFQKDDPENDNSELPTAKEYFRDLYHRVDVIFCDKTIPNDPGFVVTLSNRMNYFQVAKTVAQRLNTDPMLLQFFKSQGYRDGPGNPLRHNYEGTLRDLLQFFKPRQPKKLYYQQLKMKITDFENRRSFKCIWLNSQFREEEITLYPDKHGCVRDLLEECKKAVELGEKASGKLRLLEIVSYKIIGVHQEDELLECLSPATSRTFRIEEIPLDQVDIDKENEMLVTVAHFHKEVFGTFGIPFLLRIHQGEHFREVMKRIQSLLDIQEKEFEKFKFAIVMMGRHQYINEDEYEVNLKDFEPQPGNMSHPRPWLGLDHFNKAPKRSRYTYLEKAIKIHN

The compound `C[C@H]1CNC[C@H](C)N1Cc1c(Cl)cc(Cl)cc1-c1ccnc2cc(CN3C(=O)C4CC4C3=O)sc12` (stereo partly drawn) [Example 47, 3-((7-(3,5-dichloro-2-(((2S,6S)-2,6-dimethylpiperazin-1-yl)methyl)phenyl)thieno[3,2-b]pyridin-2-yl)methyl)-3-azabicyclo[3.1.0]hexane-2,4-dione] returned a half-inhibitory concentration (IC50) of less than 0.01 µM.

The compound `C[C@H]1CNC[C@H](C)N1Cc1c(Cl)cc(Cl)cc1-c1ccnc2cc(CN3C(=O)CCC3=O)sc12` [Example 48, 1-((7-(3,5-dichloro-2-(((2S,6S)-2,6-dimethylpiperazin-1-yl)methyl)phenyl)thieno[3,2-b]pyridin-2-yl)methyl)pyrrolidine-2,5-dione] yielded a half-inhibitory concentration (IC50) of less than 0.01 µM.

Consider `C[C@H]1CNC[C@H](C)N1Cc1c(Cl)cc(Cl)cc1-c1ccnc2cc(CN3C(=O)CCN(C)C3=O)sc12` [Example 49, 3-((7-(3,5-dichloro-2-(((2S,6S)-2,6-dimethylpiperazin-1-yl)methyl)phenyl)thieno[3,2-b]pyridin-2-yl)methyl)-1-methyldihydropyrimidine-2,4(1H,3H)-dione], for which the IC50 is less than 0.01 µM.

Consider `Cc1cc(Cl)cc(-c2ncnc3cc(CN4C(=O)C5C(C4=O)C5(C)C)sc23)c1CN1CCNC[C@@H]1C` (stereo partly drawn) [Example 50, 3-((4-(5-chloro-3-methyl-2-(((S)-2-methylpiperazin-1-yl)methyl)phenyl)thieno[3,2-d]pyrimidin-6-yl)methyl)-6,6-dimethyl-3-azabicyclo[3.1.0]hexane-2,4-dione], for which the IC50 is less than 0.01 µM.

On to `Cc1cc(Cl)cc(-c2ncnc3cc(CN4C(=O)C5CC5C4=O)sc23)c1CN1CCNC[C@@H]1C` (stereo partly drawn) [Example 51, 3-((4-(5-chloro-3-methyl-2-(((S)-2-methylpiperazin-1-yl)methyl)phenyl)thieno[3,2-d]pyrimidin-6-yl)methyl)-3-azabicyclo[3.1.0]hexane-2,4-dione], for which the concentration for half-maximal inhibition (IC50) was less than 0.01 µM.

As for `CC[C@H]1CNCCN1Cc1c(C)cc(Cl)cc1-c1ncnc2cc(CN3C(=O)C4C(C3=O)C4(C)C)sc12` (stereo partly drawn) [Example 52, 3-((4-(5-chloro-2-(((S)-2-ethylpiperazin-1-yl)methyl)-3-methylphenyl)thieno[3,2-d]pyrimidin-6-yl)methyl)-6,6-dimethyl-3-azabicyclo[3.1.0]hexane-2,4-dione], the half-maximal inhibitory concentration (IC50) lay within 0.01 to 0.1 µM.

Take `Cc1cc(Cl)cc(-c2ncnc3cc(CN4C(=O)C5C(C4=O)C5(C)C)sc23)c1CN1CCN(C)C[C@@H]1C` (stereo partly drawn) [Example 53, 3-((4-(5-chloro-2-(((S)-2,4-dimethylpiperazin-1-yl)methyl)-3-methylphenyl)thieno[3,2-d]pyrimidin-6-yl)methyl)-6,6-dimethyl-3-azabicyclo[3.1.0]hexane-2,4-dione]: the IC50 is 0.01 to 0.1 µM.

The compound `CCN1CCN(Cc2c(C)cc(Cl)cc2-c2ncnc3cc(CN4C(=O)C5C(C4=O)C5(C)C)sc23)[C@@H](C)C1` (stereo partly drawn) [Example 54, 3-((4-(5-chloro-2-(((S)-4-ethyl-2-methylpiperazin-1-yl)methyl)-3-methylphenyl)thieno[3,2-d]pyrimidin-6-yl)methyl)-6,6-dimethyl-3-azabicyclo[3.1.0]hexane-2,4-dione] returned a half-maximal inhibitory concentration (IC50) of less than 0.01 µM.

Compound `Cc1cc(Cl)cc(-c2ncnc3cc(CN4C(=O)C5CC5C4=O)sc23)c1CN1CCN(C)C[C@@H]1C` (stereo partly drawn) [Example 55, 3-((4-(5-chloro-2-(((S)-2,4-dimethylpiperazin-1-yl)methyl)-3-methylphenyl)thieno[3,2-d]pyrimidin-6-yl)methyl)-3-azabicyclo[3.1.0]hexane-2,4-dione] showed a 50% inhibitory concentration (IC50) of 0.01 to 0.1 µM.

In turn, `Cc1cc(Cl)cc(-c2ncnc3cc(CN4C(=O)C5C(C4=O)C5(C)C)sc23)c1CN1[C@@H](C)CNC[C@@H]1C` (stereo partly drawn) [Example 56, 3-((4-(5-chloro-2-(((2S,6S)-2,6-dimethylpiperazin-1-yl)methyl)-3-methylphenyl)thieno[3,2-d]pyrimidin-6-yl)methyl)-6,6-dimethyl-3-azabicyclo[3.1.0]hexane-2,4-dione] had an IC50 of 0.01 to 0.1 µM.

The compound `Cc1cc(Cl)cc(-c2ncnc3cc(CN4C(=O)C5CC5C4=O)sc23)c1CN1[C@@H](C)CNC[C@@H]1C` (stereo partly drawn) [Example 57, 3-((4-(5-chloro-2-(((2S,6S)-2,6-dimethylpiperazin-1-yl)methyl)-3-methylphenyl)thieno[3,2-d]pyrimidin-6-yl)methyl)-3-azabicyclo[3.1.0]hexane-2,4-dione] gave a half-inhibitory concentration (IC50) of less than 0.01 µM.

Turning to `Cc1cc(C(F)(F)F)cc(-c2ncnc3cc(CN4C(=O)C5CC5C4=O)sc23)c1CN1CCNC[C@@H]1C` (stereo partly drawn) [Example 58, 3-((4-(3-methyl-2-(((S)-2-methylpiperazin-1-yl)methyl)-5-(trifluoromethyl)phenyl)thieno[3,2-d]pyrimidin-6-yl)methyl)-3-azabicyclo[3.1.0]hexane-2,4-dione], the concentration for half-maximal inhibition (IC50) lay in the range of 0.01 to 0.1 µM.

As to `Cc1cc(C(F)(F)F)cc(-c2ncnc3cc(CN4C(=O)C5C(C4=O)C5(C)C)sc23)c1CN1CCNC[C@@H]1C` (stereo partly drawn) [Example 59, 6,6-dimethyl-3-((4-(3-methyl-2-(((S)-2-methylpiperazin-1-yl)methyl)-5-(trifluoromethyl)phenyl)thieno[3,2-d]pyrimidin-6-yl)methyl)-3-azabicyclo[3.1.0]hexane-2,4-dione], the IC50 was 0.01 to 0.1 µM.

Turning to `Cc1cc(C#N)cc(-c2ncnc3cc(CN4C(=O)C5CC5C4=O)sc23)c1CN1CCNC[C@@H]1C` (stereo partly drawn) [Example 60, 3-(6-((2,4-dioxo-3-azabicyclo[3.1.0]hexan-3-yl)methyl)thieno[3,2-d]pyrimidin-4-yl)-5-methyl-4-(((S)-2-methylpiperazin-1-yl)methyl)benzonitrile], the half-inhibitory concentration (IC50) lay within 0.01 to 0.1 µM.

`C[C@H]1CNCCN1Cc1c(F)cc(Cl)cc1-c1ncnc2cc(CN3C(=O)C4CC4C3=O)sc12` (stereo partly drawn) [Example 61, 3-((4-(5-chloro-3-fluoro-2-(((S)-2-methylpiperazin-1-yl)methyl)phenyl)thieno[3,2-d]pyrimidin-6-yl)methyl)-3-azabicyclo[3.1.0]hexane-2,4-dione]: the half-inhibitory concentration (IC50) fell in the range of 0.01 to 0.1 µM.

Take `Cc1ccc(CN2CCNC[C@@H]2C)c(-c2ncnc3cc(CN4C(=O)C5CC5C4=O)sc23)c1` (stereo partly drawn) [Example 62, 3-((4-(5-methyl-2-(((S)-2-methylpiperazin-1-yl)methyl)phenyl)thieno[3,2-d]pyrimidin-6-yl)methyl)-3-azabicyclo[3.1.0]hexane-2,4-dione]: the IC50 was more than 0.1 µM.

The compound `C[C@H]1CNCCN1Cc1ccc(F)cc1-c1ncnc2cc(CN3C(=O)C4CC4C3=O)sc12` (stereo partly drawn) [Example 63, 3-((4-(5-fluoro-2-(((S)-2-methylpiperazin-1-yl)methyl)phenyl)thieno[3,2-d]pyrimidin-6-yl)methyl)-3-azabicyclo[3.1.0]hexane-2,4-dione] yielded a half-inhibitory concentration (IC50) of more than 0.1 µM.

Compound `C[C@H]1CNCCN1Cc1ccc(Cl)cc1-c1ncnc2cc(CN3C(=O)C4CC4C3=O)sc12` (stereo partly drawn) [Example 64, 3-((4-(5-chloro-2-(((S)-2-methylpiperazin-1-yl)methyl)phenyl)thieno[3,2-d]pyrimidin-6-yl)methyl)-3-azabicyclo[3.1.0]hexane-2,4-dione] displayed a 50% inhibitory concentration (IC50) of 0.01 to 0.1 µM.

As to `Cc1cc(Cl)cc(-c2ncnc3cc(CN4C(=O)C5CC5C4=O)sc23)c1CN1C[C@@H](C)NC[C@@H]1C` (stereo partly drawn) [Example 65, 3-((4-(5-chloro-2-(((2S,5R)-2,5-dimethylpiperazin-1-yl)methyl)-3-methylphenyl)thieno[3,2-d]pyrimidin-6-yl)methyl)-3-azabicyclo[3.1.0]hexane-2,4-dione], the half-maximal inhibitory concentration (IC50) is less than 0.01 µM.

Compound `Cc1cc(Cl)cc(-c2ncnc3cc(Cn4c(=O)ccn(C)c4=O)sc23)c1CN1C[C@@H](C)NC[C@@H]1C` [Example 66, 3-((4-(5-chloro-2-(((2S,5R)-2,5-dimethylpiperazin-1-yl)methyl)-3-methylphenyl)thieno[3,2-d]pyrimidin-6-yl)methyl)-1-methylpyrimidine-2,4(1H,3H)-dione] gave a half-maximal inhibitory concentration (IC50) of less than 0.01 µM.

`Cc1cc(Cl)cc(-c2ncnc3cc(CN4C(=O)C5C(C4=O)C5(C)C)sc23)c1CN1C[C@@H](C)NC[C@@H]1C` (stereo partly drawn) [Example 67, 3-((4-(5-chloro-2-(((2S,5R)-2,5-dimethylpiperazin-1-yl)methyl)-3-methylphenyl)thieno[3,2-d]pyrimidin-6-yl)methyl)-6,6-dimethyl-3-azabicyclo[3.1.0]hexane-2,4-dione] yielded an IC50 of less than 0.01 µM.

As for `Cc1cc(Cl)cc(-c2ncnc3cc(CN4C(=O)CCC4=O)sc23)c1CN1C[C@@H](C)NC[C@@H]1C` [Example 68, 1-((4-(5-chloro-2-(((2S,5R)-2,5-dimethylpiperazin-1-yl)methyl)-3-methylphenyl)thieno[3,2-d]pyrimidin-6-yl)methyl)pyrrolidine-2,5-dione], the IC50 fell in the range of 0.01 to 0.1 µM.

`Cc1cc(Cl)cc(-c2ncnc3cc(CN4C(=O)CCCC4=O)sc23)c1CN1C[C@@H](C)NC[C@@H]1C` [Example 69, 1-((4-(5-chloro-2-(((2S,5R)-2,5-dimethylpiperazin-1-yl)methyl)-3-methylphenyl)thieno[3,2-d]pyrimidin-6-yl)methyl)piperidine-2,6-dione] displayed an IC50 of less than 0.01 µM.

Take `Cc1cc(Cl)cc(-c2ncnc3cc(CN4C(=O)CC(C)(C)CC4=O)sc23)c1CN1C[C@@H](C)NC[C@@H]1C` [Example 70, 1-((4-(5-chloro-2-(((2S,5R)-2,5-dimethylpiperazin-1-yl)methyl)-3-methylphenyl)thieno[3,2-d]pyrimidin-6-yl)methyl)-4,4-dimethylpiperidine-2,6-dione]: the IC50 lay within 0.01 to 0.1 µM.

In turn, `Cc1cc(C)c(CN2CCNC[C@@H]2C)c(-c2ncnc3cc(CN4C(=O)C5CC5C4=O)sc23)c1` (stereo partly drawn) [Example 71, 3-((4-(3,5-dimethyl-2-(((S)-2-methylpiperazin-1-yl)methyl)phenyl)thieno[3,2-d]pyrimidin-6-yl)methyl)-3-azabicyclo[3.1.0]hexane-2,4-dione] gave a half-maximal inhibitory concentration (IC50) of more than 0.1 µM.

Regarding `C[C@H]1CNCCN1Cc1c(F)cccc1-c1ncnc2cc(CN3C(=O)C4CC4C3=O)sc12` (stereo partly drawn) [Example 72, 3-((4-(3-fluoro-2-(((S)-2-methylpiperazin-1-yl)methyl)phenyl)thieno[3,2-d]pyrimidin-6-yl)methyl)-3-azabicyclo[3.1.0]hexane-2,4-dione], the IC50 was more than 0.1 µM.
